{
  "source": "patent US7449545B2",
  "about": "“Antimicrobial bolisin peptides” (IPF Pharmaceuticals GmbH, priority 2001, dated 2008)",
  "type_in_all_cases": "cell-based",
  "key": {"[1]": {"system": "Klebsiella pneumoniae ATCC 10031", "settings": "Tryptic Soy Broth (3 g/l) with 150 mM sodium chloride; complete growth inhibition not achieved", "protocol": "(§1) The antibiotic activity of bolisin analogues was examined by determining the minimum inhibition concentration. The minimum inhibition concentration of an analogue designates the lowest peptide concentration which is required to inhibit the growth of microorganisms completely after an incubation time of 18±2 h. This method allows to obtain a quantitative result about the antimicrobial potency of the peptides. These examinations were performed by analogy with the recommendations (M7-A3) edited by the NCCLS (National Committee for Clinical Laboratory Standards) by applying a dilution test in a liquid medium using chemically synthesized peptides (peptide sequences according to claims 1 to 3). Mueller Hinton Broth was used as the test medium according to the NCCLS recommendations unless indicated otherwise. […] The minimum inhibition concentrations are stated in [μg/ml].\n(§2) A complete growth inhibition could not be achieved in this case. For determining the minimum inhibition concentration, the following microorganisms were used: • 1. Staphylococcus aureus ATCC 25923 • 2. Enterococcus faecalis ATCC 51299 (vancomycin-resistant) • 3. Streptococcus pneumoniae DSM 11865 (penicillin-resistant) • 4. Escherichia coli ATCC 25922 • 5. Pseudomonas aeruginosa ATCC 9027 • 6. Klebsiella pneumoniae ATCC 10031 • 7. Candida albicans ATCC 10231\n(§3) Also for these examinations, the minimum inhibition concentration of the peptides against Gram-positive and Gram-negative microorganisms (microorganisms 1-6) was determined. Tryptic Soy Broth (3 g/l) with an addition of salt in physiological concentration (150 mM sodium chloride) was used as the test medium.\n(§4) A complete growth inhibition could not be achieved in this case."}, "[2]": {"system": "Pseudomonas aeruginosa ATCC 9027", "settings": "Mueller Hinton Broth; complete growth inhibition not achieved"}, "[3]": {"system": "Staphylococcus aureus ATCC 25923", "settings": "ATCC 25923, 2 h", "how_it_was_run": "(§5)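 Antimicrobial potency of the synthesized peptides is expressed as MIC (μg/ml), read as complete inhibition of growth after an 18±2 h incubation in a Mueller Hinton Broth dilution series.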"}, "[4]": {"system": "Escherichia coli ATCC 25922", "settings": "ATCC 25922, 2 h", "how_it_was_run": "as §5"}, "[5]": {"system": "Candida albicans ATCC 10231", "settings": "for minimum inhibition concentration: ATCC 10231, 2 h"}, "[6]": {"system": "Klebsiella pneumoniae ATCC 10031", "settings": "ATCC 10031, 2 h", "how_it_was_run": "as §5"}, "[7]": {"system": "Streptococcus pneumoniae DSM 11865 (penicillin-resistant)", "settings": "DSM 11865, 2 h", "how_it_was_run": "as §5"}, "[8]": {"system": "Enterococcus faecalis ATCC 51299 (vancomycin-resistant)", "settings": "ATCC 51299, 2 h", "how_it_was_run": "as §5"}, "[9]": {"system": "Staphylococcus aureus ATCC 25923", "settings": "Tryptic Soy Broth (3 g/l) with 150 mM sodium chloride; complete growth inhibition not achieved", "protocol": "as §1, §2, §3, §4"}, "[10]": {"system": "Streptococcus pneumoniae DSM 11865 (penicillin-resistant)", "settings": "Tryptic Soy Broth (3 g/l) with 150 mM sodium chloride; complete growth inhibition not achieved", "protocol": "as §1, §2, §3, §4"}, "[11]": {"system": "Enterococcus faecalis ATCC 51299 (vancomycin-resistant)", "settings": "Tryptic Soy Broth (3 g/l) with 150 mM sodium chloride; complete growth inhibition not achieved", "protocol": "as §1, §2, §3, §4"}},
  "note": "Ends that are not written are not given here.",
  "data": [
    {"substance": "YIVYKIRRAWKRRKALK-OH [BOL-54, YIVYKIRRAWKRRKALK]", "values": [
      {"measurement": "peptide concentration giving 75% inhibition of growth (value in parentheses)", "setting": "[1]", "value": "(200) μg/ml"},
      {"measurement": "peptide concentration giving 75% inhibition of growth (value in parentheses)", "setting": "[2]", "value": "(25) μg/ml"},
      {"measurement": "minimum inhibition concentration", "setting": "[3]", "value": 200, "unit": "mg/L"},
      {"measurement": "minimum inhibition concentration", "setting": "[4]", "value": 100, "unit": "mg/L"},
      {"measurement": "minimum inhibition concentration", "setting": "[5]", "value": 18.75, "unit": "mg/L"},
      {"measurement": "minimum inhibition concentration", "setting": "[6]", "value": 18.75, "unit": "mg/L"},
      {"measurement": "minimum inhibition concentration", "setting": "[7]", "value": 75, "unit": "mg/L"},
      {"measurement": "minimum inhibition concentration", "setting": "[8]", "value": 100, "unit": "mg/L"}
    ]},
    {"substance": "KYIVYKIRSAWKRRKALK-OH [BOL-86, KYIVYKIRSAWKRRKALK]", "values": [
      {"measurement": "peptide concentration giving 75% inhibition of growth (value in parentheses)", "setting": "[9]", "value": "(300) μg/ml"},
      {"measurement": "peptide concentration giving 75% inhibition of growth (value in parentheses)", "setting": "[10]", "value": "(300) μg/ml"},
      {"measurement": "peptide concentration giving 75% inhibition of growth (value in parentheses)", "setting": "[2]", "value": "(18.75) μg/ml"},
      {"measurement": "minimum inhibition concentration", "setting": "[3]", "value": 75, "unit": "mg/L"},
      {"measurement": "minimum inhibition concentration", "setting": "[4]", "value": 150, "unit": "mg/L"},
      {"measurement": "minimum inhibition concentration", "setting": "[5]", "value": 18.75, "unit": "mg/L"},
      {"measurement": "minimum inhibition concentration", "setting": "[6]", "value": 50, "unit": "mg/L"},
      {"measurement": "minimum inhibition concentration", "setting": "[7]", "value": 150, "unit": "mg/L"},
      {"measurement": "minimum inhibition concentration", "setting": "[8]", "value": 200, "unit": "mg/L"}
    ]},
    {"substance": "YIVYKIRRARKRRKALK-OH [BOL-52, YIVYKIRRARKRRKALK]", "values": [
      {"measurement": "peptide concentration giving 75% inhibition of growth (value in parentheses)", "setting": "[1]", "value": "(300) μg/ml"},
      {"measurement": "peptide concentration giving 75% inhibition of growth (value in parentheses)", "setting": "[2]", "value": "(37.5) μg/ml"},
      {"measurement": "minimum inhibition concentration", "setting": "[3]", "value": 300, "unit": "mg/L"},
      {"measurement": "minimum inhibition concentration", "setting": "[4]", "value": ">300", "unit": "mg/L"},
      {"measurement": "peptide concentration giving 75% inhibition of growth (value in parentheses)", "setting": "[5]; Mueller Hinton Broth, complete growth inhibition not achieved", "value": "(37.5) μg/ml"},
      {"measurement": "minimum inhibition concentration", "setting": "[6]", "value": 75, "unit": "mg/L"},
      {"measurement": "minimum inhibition concentration", "setting": "[7]", "value": 200, "unit": "mg/L"},
      {"measurement": "minimum inhibition concentration", "setting": "[8]", "value": 200, "unit": "mg/L"}
    ]},
    {"substance": "YIVYKIRSARKRWK-OH [BOL-71, YIVYKIRSARKRWK]", "values": [
      {"measurement": "peptide concentration giving 75% inhibition of growth (value in parentheses)", "setting": "[11]", "value": "(300) μg/ml"},
      {"measurement": "peptide concentration giving 75% inhibition of growth (value in parentheses)", "setting": "[2]", "value": "(200) μg/ml"},
      {"measurement": "minimum inhibition concentration", "setting": "[3]", "value": 200, "unit": "mg/L"},
      {"measurement": "minimum inhibition concentration", "setting": "[4]", "value": 300, "unit": "mg/L"},
      {"measurement": "minimum inhibition concentration", "setting": "[5]", "value": 300, "unit": "mg/L"},
      {"measurement": "minimum inhibition concentration", "setting": "[6]", "value": 300, "unit": "mg/L"},
      {"measurement": "minimum inhibition concentration", "setting": "[7]", "value": 300, "unit": "mg/L"},
      {"measurement": "minimum inhibition concentration", "setting": "[8]", "value": 200, "unit": "mg/L"}
    ]},
    {"substance": "YIVYKIRSAWKRRKALK-OH [BOL-44, YIVYKIRSAWKRRKALK]", "values": [
      {"measurement": "peptide concentration giving 75% inhibition of growth (value in parentheses)", "setting": "[11]", "value": "(300) μg/ml"},
      {"measurement": "peptide concentration giving 75% inhibition of growth (value in parentheses)", "setting": "[2]", "value": "(75) μg/ml"},
      {"measurement": "minimum inhibition concentration", "setting": "[3]", "value": 150, "unit": "mg/L"},
      {"measurement": "minimum inhibition concentration", "setting": "[4]", "value": 200, "unit": "mg/L"},
      {"measurement": "minimum inhibition concentration", "setting": "[5]", "value": 37.5, "unit": "mg/L"},
      {"measurement": "minimum inhibition concentration", "setting": "[6]", "value": 75, "unit": "mg/L"},
      {"measurement": "minimum inhibition concentration", "setting": "[7]", "value": 200, "unit": "mg/L"},
      {"measurement": "minimum inhibition concentration", "setting": "[8]", "value": ">300", "unit": "mg/L"}
    ]},
    {"substance": "YIVWKIRSARKRWKALK-OH [BOL-81, YIVWKIRSARKRWKALK]", "values": [
      {"measurement": "peptide concentration giving 75% inhibition of growth (value in parentheses)", "setting": "[9]", "value": "(300) μg/ml"},
      {"measurement": "peptide concentration giving 75% inhibition of growth (value in parentheses)", "setting": "[10]", "value": "(75) μg/ml"},
      {"measurement": "peptide concentration giving 75% inhibition of growth (value in parentheses)", "setting": "[2]", "value": "(18.75) μg/ml"},
      {"measurement": "minimum inhibition concentration", "setting": "[3]", "value": 300, "unit": "mg/L"},
      {"measurement": "minimum inhibition concentration", "setting": "[4]", "value": 300, "unit": "mg/L"},
      {"measurement": "minimum inhibition concentration", "setting": "[5]", "value": 75, "unit": "mg/L"},
      {"measurement": "minimum inhibition concentration", "setting": "[6]", "value": 25, "unit": "mg/L"},
      {"measurement": "minimum inhibition concentration", "setting": "[7]", "value": 75, "unit": "mg/L"},
      {"measurement": "minimum inhibition concentration", "setting": "[8]", "value": 150, "unit": "mg/L"}
    ]}
  ]
}
